In patent publication US11214803B2, “Modulators of YAP1 expression” (Ionis Pharmaceuticals, Inc., priority 2019, dated 2022):
Marks after values point to notes of the source that are not given here. Strand notation (5' to 3'): a small letter for the sugar, then the base; units joined by * are phosphorothioate-linked, units joined directly phosphodiester-linked; [ ] holds rarer units or linkages, { } end groups; capitals alone tell only the bases. k = constrained ethyl (cEt); [5mC] = 5-methylcytosine; d = 2'-deoxy (DNA)

Tested on: Yap1 mRNA
Test: Antisense inhibition of human Yap1 in A-431 cells by cEt gapmers, single dose (Example 2, RTS4814)
Type: cell-based
Settings: A-431 cells, 5,000 cells per well, free uptake, 2,000 nM modified oligonucleotide, approx. 48 hours, RTS4814, normalized to RIBOGREEN; Table 4; asterisk (*) = targets amplicon region of primer probe set
In short: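 A-431 cells (5,000/well) received 2,000 nM oligonucleotide by free uptake for about 48 h. Yap1 mRNA was then quantified by RT-qPCR with primer probe set RTS4814, normalized to RIBOGREEN total RNA, and reported as % of untreated control; asterisked values mark oligos inside the amplicon.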

Row | Substance | YAP1 (% UTC)
1 | 716352 (k[5mC]*kT*kG*d[5mC]*dG*d[5mC]*d[5mC]*d[5mC]*d[5mC]*dG*dG*d[5mC]*dT*k[5mC]*k[5mC]*kA; antisense) [Compound 716352] | 105 % UTC
2 | 716397 (kG*kG*k[5mC]*d[5mC]*dT*d[5mC]*dA*d[5mC]*d[5mC]*dT*dG*d[5mC]*d[5mC]*kG*kA*kA; antisense) [Compound 716397] | 88 % UTC
3 | 716568 (kG*kA*kT*dT*dT*dT*dT*dT*d[5mC]*dT*dG*dA*dG*kT*kT*k[5mC]; antisense) [Compound 716568] | 72 % UTC

Same assay, conditions: Table 5; A-431 cells, 5,000 cells per well, free uptake, 2,000 nM modified oligonucleotide, approx. 48 hours; RTS4814; normalized to RIBOGREEN; Yap1 mRNA relative to untreated control cells

Row | Substance | YAP1 (% UTC)
4 | 716566 (kG*kG*kT*dA*dA*d[5mC]*dT*d[5mC]*dT*dT*d[5mC]*dT*dT*kT*k[5mC]*k[5mC]; antisense) [Compound 716566] | 102 % UTC
5 | 716479 (kG*kA*kA*d[5mC]*dA*dA*dT*d[5mC]*dT*dT*dG*dA*dA*kG*kG*k[5mC]; antisense) [Compound 716479] | 32 % UTC
6 | 716575 (kA*kA*kA*dG*dA*dA*d[5mC]*dT*dT*dA*dG*dT*dT*k[5mC]*k[5mC]*k[5mC]; antisense) [Compound 716575] | 84 % UTC

Same assay, conditions: Table 6; A-431 cells, 5,000 cells per well, free uptake, 2,000 nM modified oligonucleotide, approx. 48 hours; RTS4814; normalized to RIBOGREEN; Yap1 mRNA relative to untreated control cells

Row | Substance | YAP1 (% UTC)
7 | 716561 (kA*kA*kG*dG*dT*dA*dT*dT*dA*d[5mC]*dA*dT*dA*kA*kG*kA; antisense) [Compound 716561] | 58 % UTC
8 | 716435 (kA*k[5mC]*kA*dA*d[5mC]*dT*dG*dT*dT*dG*dA*dA*d[5mC]*kA*kA*kA; antisense) [Compound 716435] | 45 % UTC
9 | 716411 (kT*k[5mC]*kT*dG*d[5mC]*dT*dG*dT*dG*dA*dG*dG*dG*k[5mC]*kA*kG; antisense) [Compound 716411] | 102 % UTC

Same assay, conditions: Table 18; A-431 cells, 5,000 cells per well, free uptake, 2,000 nM modified oligonucleotide, approx. 48 hours; RTS4814; normalized to RIBOGREEN; Yap1 mRNA as percent of untreated control

Row | Substance | YAP1 (% UTC)
10 | 1075940 (kA*k[5mC]*kT*d[5mC]*dA*dA*d[5mC]*dA*dA*d[5mC]*d[5mC]*d[5mC]*d[5mC]*kA*kA*kG; antisense) [Compound 1075940] | 54 % UTC
11 | 1074564 (antisense k[5mC]*kT*kG*dA*dA*dT*dT*d[5mC]*d[5mC]*dA*dA*dT*d[5mC]*kG*kA*kG) [Compound 1074564] | 4 % UTC
12 | 1074660 (antisense kA*kA*kT*dT*dT*d[5mC]*dA*dT*dT*dA*d[5mC]*dT*dA*k[5mC]*kT*k[5mC]) [Compound 1074660] | 48 % UTC
13 | 1074436 (k[5mC]*kA*kT*dG*dA*dA*dG*d[5mC]*dA*dT*d[5mC]*dT*dG*kA*k[5mC]*kT; antisense) [Compound 1074436] | 31* % UTC
14 | 1076388 (kG*kA*kA*dA*dT*dA*dT*dT*d[5mC]*dG*dA*dG*dA*kA*kG*kA; antisense) [Compound 1076388] | 6 % UTC

Same assay, conditions: Table 19; A-431 cells, 5,000 cells per well, free uptake, 2,000 nM modified oligonucleotide, approx. 48 hours; RTS4814; normalized to RIBOGREEN; Yap1 mRNA as percent of untreated control

Row | Substance | YAP1 (% UTC)
15 | 1076165 (k[5mC]*k[5mC]*k[5mC]*d[5mC]*dA*dA*dG*dG*dA*d[5mC]*dT*dT*dG*k[5mC]*k[5mC]*kA; antisense) [Compound 1076165] | 79 % UTC
16 | 1076421 (kA*kA*kT*dT*dA*dT*dG*dA*d[5mC]*d[5mC]*dT*d[5mC]*d[5mC]*kA*kT*kG; antisense) [Compound 1076421] | 65 % UTC
17 | 1075045 (antisense kA*kA*kA*dT*dT*dA*dG*dA*d[5mC]*dT*d[5mC]*d[5mC]*d[5mC]*k[5mC]*k[5mC]*kA) [Compound 1075045] | 18 % UTC
18 | 1074309 (antisense k[5mC]*k[5mC]*kG*d[5mC]*dA*dT*dT*dG*d[5mC]*d[5mC]*dT*dG*dT*kG*kG*k[5mC]) [Compound 1074309] | 80 % UTC

Same assay, conditions: Table 20; Yap1 mRNA, percent of untreated control; 3-10-3 cEt gapmers targeting SEQ ID NO.: 1 and 2

Row | Substance | YAP1 (% UTC)
19 | 1075270 (antisense k[5mC]*kT*kT*dT*dA*dT*dT*dA*dA*d[5mC]*d[5mC]*dT*dG*kG*kA*kG) [Compound 1075270] | 18 % UTC
20 | 1075174 (antisense k[5mC]*k[5mC]*kT*dG*dA*dA*dA*dA*dG*dA*d[5mC]*dA*dG*kT*k[5mC]*k[5mC]) [Compound 1075174] | 74 % UTC

Same assay, conditions: Table 21; Yap1 mRNA, percent of untreated control; 3-10-3 cEt gapmers targeting SEQ ID NO.: 1 and 2

Row | Substance | YAP1 (% UTC)
21 | 1076519 (antisense kA*k[5mC]*kA*d[5mC]*dA*dA*d[5mC]*dA*d[5mC]*dG*dA*d[5mC]*dA*kG*k[5mC]*kA) [Compound 1076519] | 31 % UTC
22 | 1076039 (kG*kA*kT*dT*dA*dG*dA*dG*d[5mC]*dT*dG*dT*dA*kT*kT*k[5mC]; antisense) [Compound 1076039] | 29 % UTC
23 | 1075239 (antisense kT*k[5mC]*kT*dT*dA*dA*dA*d[5mC]*dA*dG*dG*dT*dG*k[5mC]*k[5mC]*kA) [Compound 1075239] | 27 % UTC
24 | 1075527 (kA*kT*kT*dT*dA*dA*dT*dT*dA*dA*dG*dG*dG*k[5mC]*k[5mC]*k[5mC]; antisense) [Compound 1075527] | 82 % UTC

Same assay, conditions: Table 22; Yap1 mRNA as percent of untreated control; 3-10-3 cEt gapmers; single dose

Row | Substance | YAP1 (% UTC)
25 | 1075688 (kG*kA*k[5mC]*dA*dA*dT*dA*dA*dA*d[5mC]*dA*dT*d[5mC]*kA*k[5mC]*k[5mC]; antisense) [Compound 1075688] | 12 % UTC
26 | 1075176 (antisense kA*kA*kT*dT*dA*d[5mC]*d[5mC]*d[5mC]*dG*dG*dG*dA*dA*k[5mC]*kT*kA) [Compound 1075176] | 70 % UTC
27 | 1075336 (kG*k[5mC]*kT*dT*dA*dA*dT*dA*dA*dT*d[5mC]*dT*dA*k[5mC]*k[5mC]*kA; antisense) [Compound 1075336] | 32 % UTC
28 | 1074792 (kA*kT*k[5mC]*dA*dA*dT*dG*dT*dG*d[5mC]*dT*d[5mC]*d[5mC]*kA*kT*k[5mC]; antisense) [Compound 1074792] | 4 % UTC
29 | 1074472 (kA*kA*k[5mC]*d[5mC]*d[5mC]*d[5mC]*d[5mC]*d[5mC]*d[5mC]*dA*d[5mC]*d[5mC]*dG*kA*k[5mC]*k[5mC]; antisense) [Compound 1074472] | 107 % UTC

Same assay, conditions: Table 23; Yap1 mRNA as percent of untreated control; 3-10-3 cEt gapmers; single dose

Row | Substance | YAP1 (% UTC)
30 | 1075401 (antisense k[5mC]*kG*kA*dT*dT*dA*dA*dA*dA*d[5mC]*dA*d[5mC]*dT*kG*kG*kT) [Compound 1075401] | 3 % UTC
31 | 1074121 (antisense kT*kG*k[5mC]*dG*dA*dG*dG*d[5mC]*dA*d[5mC]*dT*d[5mC]*dG*kG*kA*k[5mC]) [Compound 1074121] | 87 % UTC
32 | 1074633 (antisense kG*kA*kG*dG*d[5mC]*dT*dT*dT*dT*d[5mC]*dA*dT*dA*kG*k[5mC]*kA) [Compound 1074633] | 78 % UTC

Same assay, conditions: Table 24; Yap1 mRNA as percent of untreated control; 3-10-3 cEt gapmers targeting SEQ ID NO.: 1, and 2

Row | Substance | YAP1 (% UTC)
33 | 1074186 (antisense kG*kG*kG*d[5mC]*d[5mC]*dG*dG*dT*dT*dG*dA*dG*dG*k[5mC]*kG*kG) [Compound 1074186] | 74 % UTC
34 | 1075946 (kG*k[5mC]*kT*dG*dA*dA*dT*dA*dA*dG*dT*dA*dA*k[5mC]*kT*kT; antisense) [Compound 1075946] | 20 % UTC
35 | 1075178 (antisense k[5mC]*kT*kG*dG*dA*dA*dG*dA*dA*dA*dT*dT*dA*k[5mC]*k[5mC]*k[5mC]) [Compound 1075178] | 47 % UTC

Same assay, conditions: Table 25; Yap1 mRNA as percent of untreated control; 3-10-3 cEt gapmers targeting SEQ ID NO.: 1, and 2

Row | Substance | YAP1 (% UTC)
36 | 1074923 (antisense kG*kG*kG*d[5mC]*dG*dG*dT*dA*dA*d[5mC]*dT*d[5mC]*dT*kT*k[5mC]*kT) [Compound 1074923] | 73 % UTC
37 | 1076491 (antisense kA*kG*k[5mC]*d[5mC]*dA*dA*dA*dA*dT*dA*dG*dG*dT*kG*kA*kG) [Compound 1076491] | 12 % UTC
38 | 1074827 (kT*kA*kA*dA*dA*dT*d[5mC]*d[5mC]*dA*d[5mC]*d[5mC]*dT*dG*kA*kG*k[5mC]; antisense) [Compound 1074827] | 39 % UTC
39 | 1074539 (antisense k[5mC]*kT*kA*dT*d[5mC]*d[5mC]*dA*d[5mC]*dA*dG*dT*dA*dA*kT*kA*kG) [Compound 1074539] | 62 % UTC

Same assay, conditions: Table 32; Yap1 mRNA, percent of untreated control; 3-10-3 cEt gapmers targeting SEQ ID NO.: 1, and 2

Row | Substance | YAP1 (% UTC)
40 | 1074834 (kT*kT*kG*d[5mC]*dG*dA*dG*dG*dA*dT*dA*dA*dA*kA*kT*k[5mC]; antisense) [compound 1074834] | 14 % UTC
41 | 1075506 (k[5mC]*kA*kT*dA*dA*dA*dG*dG*dT*dG*dA*d[5mC]*dA*kG*k[5mC]*k[5mC]; antisense) [compound 1075506] | 66 % UTC

Same assay, conditions: Table 33; Yap1 mRNA, percent of untreated control; 3-10-3 cEt gapmers targeting SEQ ID NO.: 1, and 2

Row | Substance | YAP1 (% UTC)
42 | 1076499 (kG*k[5mC]*kT*dA*dA*dT*dA*dT*dA*dT*d[5mC]*d[5mC]*dA*kA*kT*kT; antisense) [compound 1076499] | 37 % UTC

Same assay, conditions: Yap1 mRNA as percent of untreated control; A-431 cells; 3-10-3 cEt gapmers targeting SEQ ID NO.: 1, and 2; Table 31

Row | Substance | YAP1 (% UTC)
43 | 1074257 (antisense kG*k[5mC]*kA*d[5mC]*dT*dG*dG*dT*dG*dG*dA*d[5mC]*dT*kG*kG*kT) [compound 1074257] | 29 % UTC
44 | 1074449 (k[5mC]*kT*kA*dA*dT*dG*dA*dT*dA*dG*d[5mC]*dA*d[5mC]*kT*kA*kG; antisense) [compound 1074449] | 36 % UTC
45 | 1074129 (k[5mC]*k[5mC]*k[5mC]*dG*dG*d[5mC]*dT*d[5mC]*d[5mC]*dA*d[5mC]*dT*dG*kG*kT*k[5mC]; antisense) [compound 1074129] | 77 % UTC
